Results published in PubChem BioAssay AID248 (DTP/NCI, 2004).
Where “and” joins values, the source holds several entries; their conditions need not be identical. Identical values can stand only once. Inconclusive results and toxic doses are left out. No stated cut-off is given here; in the data, active means T/C of 150% or more; inactive means T/C below 125%.

Tested on: L1210 leukemia ip in BDF1 mice, survival T/C
Assay: NCI In Vivo Anticancer Drug Screen. Data for tumor model L1210 Leukemia (intraperitoneal) in B6D2F1 (BDF1) mice
Conditions: endpoint: mean survival time, higher = longer survival
Method in brief: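 Read-out is survival time, reported as the treated-group measurement over the vehicle-control measurement.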

[1] = dose: 100.0 mg/kg/injection, schedule: Q01DX009 (ip), vehicle: Klucel (hydroxypropylcellulose) (HPC)
[2] = dose: 200.0 mg/kg/injection, schedule: Q01DX009 (ip), vehicle: Klucel (hydroxypropylcellulose) (HPC)
[3] = dose: 100.0 mg/kg/injection, schedule: Q01DX009 (ip), vehicle: saline with Tween-80
[4] = dose: 200.0 mg/kg/injection, schedule: Q01DX009 (ip), vehicle: saline with Tween-80
[5] = dose: 100.0 mg/kg/injection, schedule: Q01DX001 (ip), vehicle: saline
[6] = dose: 200.0 mg/kg/injection, schedule: Q01DX001 (ip), vehicle: saline
[7] = dose: 400.0 mg/kg/injection, schedule: Q01DX001 (ip), vehicle: saline
[8] = dose: 75.0 mg/kg/injection, schedule: Q01DX001 (ip), vehicle: other
[9] = dose: 150.0 mg/kg/injection, schedule: Q01DX001 (ip), vehicle: other
[10] = dose: 300.0 mg/kg/injection, schedule: Q01DX001 (ip), vehicle: other
[11] = dose: 50.0 mg/kg/injection, schedule: Q01DX001 (ip), vehicle: Klucel (hydroxypropylcellulose) (HPC)
[12] = dose: 100.0 mg/kg/injection, schedule: Q04DX003 (ip), vehicle: Klucel (hydroxypropylcellulose) (HPC)
[13] = dose: 200.0 mg/kg/injection, schedule: Q04DX003 (ip), vehicle: Klucel (hydroxypropylcellulose) (HPC)
[14] = dose: 400.0 mg/kg/injection, schedule: Q04DX003 (ip), vehicle: Klucel (hydroxypropylcellulose) (HPC)
[15] = dose: 100.0 mg/kg/injection, schedule: Q01DX001 (ip), vehicle: saline with Tween-80
[16] = dose: 100.0 mg/kg/injection, schedule: Q01DX001 (ip), vehicle: carboxymethylcellulose (CMC)
[17] = dose: 200.0 mg/kg/injection, schedule: Q01DX001 (ip), vehicle: carboxymethylcellulose (CMC)
[18] = dose: 400.0 mg/kg/injection, schedule: Q01DX001 (ip), vehicle: carboxymethylcellulose (CMC)

Measured: T/C

CN(C)C(=O)C(OCc1ccccc1)C(OCc1ccccc1)C(OCc1ccccc1)C(O)COCc1ccccc1 (stereo unspecified)
inactive: dose: 50.0 mg/kg/injection, schedule: Q01DX009 (ip), vehicle: Klucel (hydroxypropylcellulose) (HPC) 88 % of control | [1] 96 % of control | [2] 100 % of control

ClC1(Cl)C2(c3ccccc3)OC(c3ccccc3)(c3ccccc32)C1(Cl)Cl
inactive: dose: 100.0 mg/kg/injection, schedule: Q04DX002 (ip), vehicle: Klucel (hydroxypropylcellulose) (HPC) 97 % of control | dose: 200.0 mg/kg/injection, schedule: Q04DX002 (ip), vehicle: Klucel (hydroxypropylcellulose) (HPC) 97 % of control | dose: 400.0 mg/kg/injection, schedule: Q04DX002 (ip), vehicle: Klucel (hydroxypropylcellulose) (HPC) 102 % of control

O=[N+]([O-])c1ccc(C[Se]c2ncnc3c(C4OC(CO)C(O)C4O)[nH]nc23)cc1 (stereo unspecified)
inactive: dose: 12.5 mg/kg/injection, schedule: Q01DX005 (ip), vehicle: saline 98 % of control | dose: 25.0 mg/kg/injection, schedule: Q01DX005 (ip), vehicle: saline 104 % of control | dose: 50.0 mg/kg/injection, schedule: Q01DX005 (ip), vehicle: saline 93 % of control

CC(=O)Oc1ccc2c3c(cccc13)CC2
inactive: [3] 97 % of control | [4] 96 % of control | dose: 400.0 mg/kg/injection, schedule: Q01DX009 (ip), vehicle: saline with Tween-80 92 % of control

C=CCn1c(=O)n(CC=C)c(=O)n(CC=C)c1=O
inactive: [5] 108 % of control | dose: 100.0 mg/kg/injection, schedule: Q04DX003 (ip), vehicle: carboxymethylcellulose (CMC) 106 % of control | [6] 102 % of control | dose: 200.0 mg/kg/injection, schedule: Q04DX003 (ip), vehicle: carboxymethylcellulose (CMC) 92 % of control | [7] 104 % of control | dose: 400.0 mg/kg/injection, schedule: Q04DX003 (ip), vehicle: carboxymethylcellulose (CMC) 95 % of control

CCOC(=O)N/N=C/c1cccs1
inactive: [5] 98 % of control | [6] 96 % of control | [7] 98 % of control

CC(C)CNC(=S)Nc1ccccc1
inactive: [8] 98 % of control | [9] 98 % of control | [10] 102 % of control

CC(N)c1ccccc1Cl (stereo unspecified)
inactive: dose: 12.5 mg/kg/injection, schedule: Q04DX003 (ip), vehicle: saline 107 % of control | dose: 25.0 mg/kg/injection, schedule: Q04DX003 (ip), vehicle: saline 96 % of control | dose: 50.0 mg/kg/injection, schedule: Q04DX003 (ip), vehicle: saline 96 % of control

Cc1nc(N)[nH]c(=O)c1CCCNC(=O)Cc1ccccc1
inactive: dose: 12.5 mg/kg/injection, schedule: Q01DX001 (ip), vehicle: Klucel (hydroxypropylcellulose) (HPC) 105 % of control | dose: 25.0 mg/kg/injection, schedule: Q01DX001 (ip), vehicle: Klucel (hydroxypropylcellulose) (HPC) 97 % of control | [11] 100 % of control

Nc1ccc(Oc2ccc(Cl)cc2)c(Cl)c1
inactive: [3] 103 % of control | [12] 103 % of control | [4] 94 % of control | [13] 92 % of control | [14] 111 % of control

NC(=O)N/N=C1/C=C2CCCCC2CC1 (stereo unspecified)
inactive: [8] 101 % of control | [9] 95 % of control | [10] 100 % of control

CN(C)c1ccc(CNc2cccc([N+](=O)[O-])c2)cc1
inactive: [15] 96 % of control | dose: 200.0 mg/kg/injection, schedule: Q01DX001 (ip), vehicle: saline with Tween-80 90 % of control | dose: 400.0 mg/kg/injection, schedule: Q01DX001 (ip), vehicle: saline with Tween-80 95 % of control

CC(CO)(CO)N=Cc1ccc(N(CCCl)CCCl)cc1
inactive: [16] 106 % of control | [17] 97 % of control | [18] 101 % of control

CCOC(=O)C(C)N (stereo unspecified)
inactive: [1] 93 % of control | [12] 105 % of control | [2] 93 % of control | [13] 102 % of control | dose: 400.0 mg/kg/injection, schedule: Q01DX009 (ip), vehicle: Klucel (hydroxypropylcellulose) (HPC) 97 % of control | [14] 97 % of control

O=C(/C=C(/NC1CCCCC1)c1ccccc1)c1ccccc1
inactive: [12] 98 % of control | [13] 102 % of control | [14] 100 % of control

c1ccc(C2=C(c3ccccc3)CSSC2)cc1
inactive: dose: 50.0 mg/kg/injection, schedule: Q04DX003 (ip), vehicle: Klucel (hydroxypropylcellulose) (HPC) 100 % of control | [12] 100 % of control | [13] 100 % of control

NC12CCCCC1(O)CCCC2 (stereo unspecified)
inactive: dose: 75.0 mg/kg/injection, schedule: Q01DX001 (ip), vehicle: saline 101 % of control | dose: 150.0 mg/kg/injection, schedule: Q01DX001 (ip), vehicle: saline 101 % of control | dose: 300.0 mg/kg/injection, schedule: Q01DX001 (ip), vehicle: saline 95 % of control

CNC(=O)Oc1ccccc1CCl
inactive: [11] 97 % of control | dose: 100.0 mg/kg/injection, schedule: Q01DX001 (ip), vehicle: Klucel (hydroxypropylcellulose) (HPC) 97 % of control | dose: 200.0 mg/kg/injection, schedule: Q01DX001 (ip), vehicle: Klucel (hydroxypropylcellulose) (HPC) 92 % of control

CCOC(=O)C(=O)NCc1cnccn1
inactive: dose: 100.0 mg/kg/injection, schedule: Q01DX009 (ip), vehicle: water 103 % of control | dose: 100.0 mg/kg/injection, schedule: Q04DX003 (ip), vehicle: water 91 % of control | dose: 200.0 mg/kg/injection, schedule: Q01DX009 (ip), vehicle: water 101 % of control and 107 % of control | dose: 200.0 mg/kg/injection, schedule: Q04DX003 (ip), vehicle: water 94 % of control | dose: 400.0 mg/kg/injection, schedule: Q01DX009 (ip), vehicle: water 94 % of control and 110 % of control | dose: 400.0 mg/kg/injection, schedule: Q04DX003 (ip), vehicle: water 104 % of control

O=C(Nc1ccccc1)Nc1cccc2ccccc12
inactive: dose: 100.0 mg/kg/injection, schedule: Q04DX002 (ip), vehicle: gum acacia 102 % of control | dose: 200.0 mg/kg/injection, schedule: Q04DX002 (ip), vehicle: gum acacia 94 % of control | dose: 400.0 mg/kg/injection, schedule: Q04DX002 (ip), vehicle: gum acacia 94 % of control

CC(=O)CC(=O)CC(C)C
inactive: dose: 50.0 mg/kg/injection, schedule: Q01DX001 (ip), vehicle: saline 105 % of control | [5] 103 % of control | [6] 100 % of control | [7] 94 % of control

COc1ccc2c(c1OC)CN(C)CCc1cc3c(cc1C(=O)C2)OCO3
inactive: [16] 96 % of control | [17] 96 % of control | [18] 100 % of control

Nc1nc2nc(CCc3ccccc3)cnc2c(=O)[nH]1
inactive: dose: 25.0 mg/kg/injection, schedule: Q01DX001 (ip), vehicle: saline with Tween-80 96 % of control | dose: 50.0 mg/kg/injection, schedule: Q01DX001 (ip), vehicle: saline with Tween-80 93 % of control | [15] 90 % of control
